Publication PMC11207335, “In Vitro Metabolism and Transport Characteristics of Zastaprazan” (Pharmaceutics, 2024)

Assays:
[1] = biological target: MATE2K (Homo sapiens, UniProt Q86VL8); assay: Uptake into HEK293 cells expressing MATE2K; conditions: for Uptake Rate / Fold-Change: 6 μM, HEK293-MATE2K; for Substrate: MATE2K; for Fold-Change: vs HEK293-mock
[2] = biological target: T1, OATP1B1 (Homo sapiens, UniProt Q9Y6L6); assay: Uptake into HEK293 cells expressing OATP1B1; conditions: for Uptake Rate / Fold-Change: 6 μM; for Substrate: OATP1B1; for Fold-Change: vs HEK293-mock
T1 sequence (Q9Y6L6 1-691): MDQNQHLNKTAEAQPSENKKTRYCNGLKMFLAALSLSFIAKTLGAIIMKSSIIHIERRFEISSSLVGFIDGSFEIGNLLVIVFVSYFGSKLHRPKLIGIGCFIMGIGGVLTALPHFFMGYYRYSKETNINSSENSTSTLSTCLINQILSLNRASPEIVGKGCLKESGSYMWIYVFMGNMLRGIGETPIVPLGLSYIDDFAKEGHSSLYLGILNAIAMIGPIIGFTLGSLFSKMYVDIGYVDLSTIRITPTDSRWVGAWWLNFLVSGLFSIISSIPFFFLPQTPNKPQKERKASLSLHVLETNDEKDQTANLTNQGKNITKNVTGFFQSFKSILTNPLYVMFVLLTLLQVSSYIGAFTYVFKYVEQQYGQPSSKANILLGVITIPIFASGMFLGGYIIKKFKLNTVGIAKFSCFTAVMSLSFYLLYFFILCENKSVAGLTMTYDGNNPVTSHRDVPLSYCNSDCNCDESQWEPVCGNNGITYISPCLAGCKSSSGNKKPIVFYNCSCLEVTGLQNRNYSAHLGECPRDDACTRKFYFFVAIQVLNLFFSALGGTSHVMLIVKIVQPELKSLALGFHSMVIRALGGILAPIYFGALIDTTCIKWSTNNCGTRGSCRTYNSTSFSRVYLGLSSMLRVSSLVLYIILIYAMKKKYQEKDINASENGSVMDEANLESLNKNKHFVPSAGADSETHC

[3] = biological target: T2, MATE1 (Homo sapiens, UniProt Q96FL8); assay: Uptake into HEK293 cells expressing MATE1; conditions: for Uptake Rate / Fold-Change: 6 μM; for Substrate: MATE1; for Fold-Change: vs HEK293-mock
T2 sequence (Q96FL8 1-570): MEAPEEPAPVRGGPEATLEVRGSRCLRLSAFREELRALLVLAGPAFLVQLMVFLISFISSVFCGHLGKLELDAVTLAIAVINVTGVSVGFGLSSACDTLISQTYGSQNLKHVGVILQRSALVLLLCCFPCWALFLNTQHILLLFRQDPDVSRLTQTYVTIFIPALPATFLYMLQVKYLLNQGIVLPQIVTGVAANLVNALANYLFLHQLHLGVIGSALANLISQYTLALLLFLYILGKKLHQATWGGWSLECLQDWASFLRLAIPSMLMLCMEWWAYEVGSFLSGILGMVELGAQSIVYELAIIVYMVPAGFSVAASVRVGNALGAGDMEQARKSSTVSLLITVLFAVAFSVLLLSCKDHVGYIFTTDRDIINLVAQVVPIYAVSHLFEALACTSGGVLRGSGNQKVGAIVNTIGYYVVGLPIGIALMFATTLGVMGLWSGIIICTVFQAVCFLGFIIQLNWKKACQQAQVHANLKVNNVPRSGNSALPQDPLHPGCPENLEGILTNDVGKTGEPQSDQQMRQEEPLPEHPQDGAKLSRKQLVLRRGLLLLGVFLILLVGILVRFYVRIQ

[4] = biological target: T3, OAT3 (Homo sapiens, UniProt Q8TCC7); assay: Uptake into HEK293 cells expressing OAT3; conditions: for Uptake Rate / Fold-Change: 6 μM; for Substrate: OAT3; for Fold-Change: vs HEK293-mock
T3 sequence (Q8TCC7 1-542): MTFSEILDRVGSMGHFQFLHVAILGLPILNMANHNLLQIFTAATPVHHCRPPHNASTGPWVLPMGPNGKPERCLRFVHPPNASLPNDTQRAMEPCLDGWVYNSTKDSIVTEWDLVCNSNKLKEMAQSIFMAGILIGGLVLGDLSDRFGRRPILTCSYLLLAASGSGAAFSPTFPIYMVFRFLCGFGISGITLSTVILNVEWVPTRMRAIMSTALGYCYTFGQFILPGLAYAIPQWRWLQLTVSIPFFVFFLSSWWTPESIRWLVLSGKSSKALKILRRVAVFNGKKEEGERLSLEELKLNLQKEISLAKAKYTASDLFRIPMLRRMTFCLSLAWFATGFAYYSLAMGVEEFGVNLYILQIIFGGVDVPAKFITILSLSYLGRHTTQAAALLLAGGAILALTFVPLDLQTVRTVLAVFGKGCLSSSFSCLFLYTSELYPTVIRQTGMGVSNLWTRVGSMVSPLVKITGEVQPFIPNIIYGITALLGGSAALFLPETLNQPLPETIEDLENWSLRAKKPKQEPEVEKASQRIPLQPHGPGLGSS

[5] = Apparent permeability in Caco-2 cells; type: in vitro ADME; conditions: human; for Papp A→B at 1 h, 4 µM / Papp B→A at 1 h, 4 µM: Caco-2, pH 7.4
Procedure: Caco-2 cells (passage no. 41–42) were grown in tissue culture flasks containing Dulbecco’s Modified Eagle Medium supplemented with 20% FBS, 1% nonessential amino acids, and 1% penicillin–streptomycin. […] The culture medium was replaced every other day. On the day of the experiment, the growth medium was discarded, and the attached cells were washed with prewarmed HBSS (pH 7.4) and preincubated with HBSS for 20 min at 37 °C. […] Aliquots (30 μL) of each sample were vortex-mixed with 90 μL of IS solution for 1 min, and then centrifugation was performed at 13,500 rpm at 4 °C for 5 min. Aliquots (5 μL) of the supernatant were injected into the LC-MS/MS for analysis.

[6] = HEK293-MATE1, cimetidine 100 μM

MATE2K, sequence (Q86VL8 1-566 isoform Q86VL8-3): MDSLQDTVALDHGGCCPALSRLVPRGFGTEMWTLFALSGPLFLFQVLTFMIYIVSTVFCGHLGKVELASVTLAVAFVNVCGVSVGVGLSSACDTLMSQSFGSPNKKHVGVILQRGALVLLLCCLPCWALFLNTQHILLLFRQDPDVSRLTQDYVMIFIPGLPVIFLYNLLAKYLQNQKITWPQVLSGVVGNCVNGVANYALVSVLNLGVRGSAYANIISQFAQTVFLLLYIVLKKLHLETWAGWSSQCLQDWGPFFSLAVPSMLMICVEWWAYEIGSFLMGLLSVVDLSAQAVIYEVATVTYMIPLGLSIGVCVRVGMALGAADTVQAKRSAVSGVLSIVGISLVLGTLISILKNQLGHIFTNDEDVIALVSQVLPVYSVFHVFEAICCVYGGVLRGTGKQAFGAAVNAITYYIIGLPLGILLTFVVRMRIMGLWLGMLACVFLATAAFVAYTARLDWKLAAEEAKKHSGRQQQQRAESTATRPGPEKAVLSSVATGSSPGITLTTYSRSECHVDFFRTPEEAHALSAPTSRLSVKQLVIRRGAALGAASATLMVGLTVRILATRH

Uptake Rate ([1]; cimetidine 100 μM) | Uptake Rate ([1]; control) | Substrate [1] | Uptake Rate ([2]; HEK293-OATP1B1, control) | Uptake Rate ([2]; HEK293-OATP1B1, rifampin 20 μM) | Substrate [2] | Uptake Rate [3, 6] | Uptake Rate ([3]; HEK293-MATE1, control) | Substrate [3] | Uptake Rate ([4]; HEK293-OAT3, control) | Uptake Rate ([4]; HEK293-OAT3, probenecid 20 μM) | Substrate [4] | Papp A→B at 1 h, 4 µM [5] | Papp B→A at 1 h, 4 µM [5] | SMILES | also measured
72.81 ± 3.33 pmol/min/10^5 Cells | 59.19 ± 3.66 pmol/min/10^5 Cells | No | 52.79 ± 2.39 pmol/min/10^5 Cells | 53.60 ± 3.73 pmol/min/10^5 Cells | No | 78.57 ± 5.38 pmol/min/10^5 Cells | 65.32 ± 4.13 pmol/min/10^5 Cells | No | 58.53 ± 3.71 pmol/min/10^5 Cells | 52.47 ± 2.27 pmol/min/10^5 Cells | No | 23 ± 5.79 ×10⁻⁶ cm/s | 10.7 ± 1.77 ×10⁻⁶ cm/s | Cc1cccc(C)c1CNc1cc(C(=O)N2CCC2)cn2c(C)c(C)nc12 [JP-1366, 1-azetidinyl(8-(((2,6-dimethylphenyl)methyl)amino)-2,3-dimethylimidazo(1,2-a)pyridin-6-yl)methanone] | 
72.81 ± 3.33 pmol/min/10^5 Cells | 59.19 ± 3.66 pmol/min/10^5 Cells | No | 52.79 ± 2.39 pmol/min/10^5 Cells | 53.60 ± 3.73 pmol/min/10^5 Cells | No | 78.57 ± 5.38 pmol/min/10^5 Cells | 65.32 ± 4.13 pmol/min/10^5 Cells | No | 58.53 ± 3.71 pmol/min/10^5 Cells | 52.47 ± 2.27 pmol/min/10^5 Cells | No | 3.36 ± 0.24 ×10⁻⁶ cm/s | 20.3 ± 1.51 ×10⁻⁶ cm/s | Cc1cccc(CO)c1CNc1cc(C(=O)N2CCC2)cn2c(C)c(C)nc12 [M1, azetidin-1-yl(8-((2-(hydroxymethyl)-6-methyl-benzyl)amino)-2,3-dimethylimidazo[1,2-a]pyridin-6-yl)methanone] | Fold-Change ([1]; cimetidine 100 μM): 1.4; Fold-Change ([1]; control): 1.1; Fold-Change ([2]; HEK293-OATP1B1, control): 1.0; Fold-Change ([2]; HEK293-OATP1B1, rifampin 20 μM): 1.0; Fold-Change [3, 6]: 1.5; Fold-Change ([3]; HEK293-MATE1, control): 1.3; Fold-Change ([4]; HEK293-OAT3, control): 1.1; Fold-Change ([4]; HEK293-OAT3, probenecid 20 μM): 1.0; efflux ratio at 1 h, 4 µM ([5]; pH 7.4, Caco-2, mean Papp,BA / mean Papp,AB, read-out: ER): 6
